# Results reported in ChEMBL document CHEMBL5113521, “Discovery of a Novel Oral Proteasome Inhibitor to Block NLRP3 Inflammasome Activation with Anti-inflammation Activity” (J Med Chem, 2022).
# Legend:
# [1] = target: T1, Proteasome Macropain subunit MB1 (Homo sapiens, UniProt P28074); test: Inhibition of 20S proteasome beta5 subunit (unknown origin) using Suc-LLVY-AMC as flurogenic substrate measured after 1 hr by fluorescence based analysis; conditions: read-out: pIC50 (converted)
# T1 sequence (P28074 whole entry): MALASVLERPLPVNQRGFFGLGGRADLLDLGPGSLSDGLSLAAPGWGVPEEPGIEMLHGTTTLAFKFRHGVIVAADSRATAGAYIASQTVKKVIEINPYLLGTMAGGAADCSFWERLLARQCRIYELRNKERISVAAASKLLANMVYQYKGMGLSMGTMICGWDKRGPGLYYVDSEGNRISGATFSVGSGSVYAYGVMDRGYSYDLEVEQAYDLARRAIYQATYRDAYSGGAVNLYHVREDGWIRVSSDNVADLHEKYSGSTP
# HEK293 = test: Cytotoxicity against HEK293 cells at less than 20 uM incubated for 24 hrs; format: toxicity, cell-based; conditions: human, hek293, 24 h
# [2] = Cytotoxicity against HEK293 cells incubated for 24 hrs; format: toxicity, cell-based; conditions: human
# [3] = target: NACHT, LRR and PYD domains-containing protein 3 (Mus musculus) (UniProt Q8R4B8); test: Inhibition of NLRP3 inflammasome activation in LPS-primed mouse J774.A1 cells assessed as reduction in IL-1beta secretion at 1 uM relative to control; format: cell-based
# Chain of NACHT, LRR and PYD domains-containing protein 3 (Mus musculus) (Q8R4B8 whole entry, the tested form may be a part): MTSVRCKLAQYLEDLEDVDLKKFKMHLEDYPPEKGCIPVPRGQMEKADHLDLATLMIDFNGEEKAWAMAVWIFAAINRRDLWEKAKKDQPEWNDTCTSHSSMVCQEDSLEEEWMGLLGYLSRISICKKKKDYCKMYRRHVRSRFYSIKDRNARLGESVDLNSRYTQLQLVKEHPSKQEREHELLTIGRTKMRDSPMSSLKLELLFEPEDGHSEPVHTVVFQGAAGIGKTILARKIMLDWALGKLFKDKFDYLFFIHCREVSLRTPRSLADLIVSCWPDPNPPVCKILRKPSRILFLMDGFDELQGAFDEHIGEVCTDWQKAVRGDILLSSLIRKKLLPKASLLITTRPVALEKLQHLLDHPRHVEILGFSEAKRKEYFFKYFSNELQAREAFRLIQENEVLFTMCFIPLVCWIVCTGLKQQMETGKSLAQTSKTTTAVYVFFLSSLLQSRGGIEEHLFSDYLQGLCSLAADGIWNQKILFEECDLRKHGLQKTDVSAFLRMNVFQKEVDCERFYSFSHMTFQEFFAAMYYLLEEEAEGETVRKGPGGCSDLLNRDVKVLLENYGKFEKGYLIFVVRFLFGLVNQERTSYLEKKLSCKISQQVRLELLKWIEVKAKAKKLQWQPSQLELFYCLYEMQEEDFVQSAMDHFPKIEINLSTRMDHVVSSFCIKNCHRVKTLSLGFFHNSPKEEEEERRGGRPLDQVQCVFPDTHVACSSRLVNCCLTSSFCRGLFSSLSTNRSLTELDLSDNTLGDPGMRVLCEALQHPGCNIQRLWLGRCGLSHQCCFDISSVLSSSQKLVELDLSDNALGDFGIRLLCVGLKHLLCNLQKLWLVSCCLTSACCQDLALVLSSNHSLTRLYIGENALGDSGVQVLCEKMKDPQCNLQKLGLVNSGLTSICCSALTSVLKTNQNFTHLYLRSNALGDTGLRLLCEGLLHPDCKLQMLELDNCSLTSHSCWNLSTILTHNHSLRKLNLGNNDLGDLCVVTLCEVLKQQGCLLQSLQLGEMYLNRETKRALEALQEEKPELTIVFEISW
Compound,IC50 [1],inhibition [3],Activity (HEK293),IC50 at 24 h [2]
CC(C)C[C@H](NC(=O)[C@H](Cc1ccccc1)NC(=O)c1cnc2ccccc2n1)B(O)O,13.2 nM,,,
CC(C)C[C@H](NC(=O)CN(C)C(=O)c1cc(Cl)ccc1Cl)B(O)O,> 50.1 nM,,,
CC(C)C[C@H](NC(=O)[C@H](Cc1ccccc1)NC(=O)c1cnccn1)B(O)O [BORTEZOMIB],,,Non-Toxic,< 79.4 nM
O=C(O)C[C@@H]1CC[C@H](NC(=O)Cc2cccs2)B(O)O1,,7.8%,,
COc1ccc(F)cc1C(=O)N[C@@H](Cc1ccccc1)C(=O)N[C@@H](CC(C)C)B(O)O,4.47 nM,,,
Cc1cncc(C(=O)N[C@@H](Cc2ccccc2)C(=O)N[C@@H](CC(C)C)B(O)O)n1,32.4 nM,,,
CC(C)C[C@H](NC(=O)CNC(=O)c1cc(Cl)ccc1Cl)B(O)O,,77%,,
CC(C)C[C@H](NC(=O)[C@@H](NC(=O)c1cc(Cl)ccc1Cl)C(C)C)B(O)O,0.708 nM,,,
CC(C)C[C@H](NC(=O)[C@H](CC(C)C)NC(=O)c1cc(Cl)ccc1Cl)B(O)O,4.07 nM,,,
CC(C)C[C@H](NC(=O)[C@H](CO)NC(=O)c1cc(Cl)ccc1Cl)B(O)O,5.13 nM,,,
CC[C@@H](C)[C@H](NC(=O)c1cc(Cl)ccc1Cl)C(=O)N[C@@H](CC(C)C)B(O)O,3.24 nM,,,
CC(C)C[C@H](NC(=O)c1cc(Cl)ccc1Cl)B(O)O,> 50.1 nM,,,
CC(C)C[C@H](NC(=O)[C@H](Cc1ccccc1)NC(=O)c1ccccn1)B(O)O,6.76 nM,,Non-Toxic,< 79.4 nM
CC(C)C[C@H](NC(=O)[C@H](Cc1ccccc1)NC(=O)c1cnccn1)C(=O)O,50.1 nM,,,
CC(C)C[C@H](NC(=O)c1ccc(CNC(=O)c2cc(Cl)ccc2Cl)cc1)B(O)O,> 50.1 nM,,,

# The next lines start with results.
IC50 [1],inhibition [3],Compound,Activity (HEK293),IC50 at 24 h [2]
3.02 nM,,CC(C)C[C@H](NC(=O)[C@H](Cc1ccccc1)NC(=O)c1c(Cl)cccc1Cl)B(O)O,Non-Toxic,< 79.4 nM
3.02 nM,,CC(C)C[C@H](NC(=O)[C@H](Cc1ccccc1)NC(=O)c1cc(Cl)ccc1F)B(O)O,,
4.79 nM,,CC(C)C[C@H](NC(=O)[C@H](Cc1ccccc1)NC(=O)c1ccc(F)cc1F)B(O)O,,
6.31 nM,,CC(C)C[C@H](NC(=O)[C@H](Cc1ccccc1)NC(=O)c1cc(Cl)ccc1Cl)B(O)O,,
1.12 nM,,CC(C)C[C@H](NC(=O)[C@H](Cc1ccccc1)NC(=O)c1cccc(F)c1F)B(O)O,Non-Toxic,< 79.4 nM
3.47 nM,,CC(C)C[C@H](NC(=O)[C@H](Cc1ccccc1)NC(=O)c1ccc(Cl)cc1Cl)B(O)O,,
19.5 nM,,CC(C)C[C@H](NC(=O)[C@H](Cc1ccccc1)NS(=O)(=O)c1cc(Cl)ccc1Cl)B(O)O,,
6.03 nM,,CC(C)C[C@H](NC(=O)[C@H](Cc1ccccc1)NC(=O)c1cc(F)ccc1F)B(O)O,,
7.08 nM,,CC(C)C[C@H](NC(=O)[C@@H](NC(=O)c1cc(Cl)ccc1Cl)c1ccccc1)B(O)O,,
1.2 nM,,CC(C)C[C@H](NC(=O)[C@H](Cc1ccccc1)NC(=O)c1cccc(Cl)c1Cl)B(O)O,Non-Toxic,< 79.4 nM
12 nM,,CC(C)C[C@H](NC(=O)[C@H](Cc1ccc2ccccc2c1)NC(=O)c1cc(Cl)ccc1Cl)B(O)O,,
8.32 nM,,COc1ccc(Cl)cc1C(=O)N[C@@H](Cc1ccccc1)C(=O)N[C@@H](CC(C)C)B(O)O,,
1 nM,,CC(C)C[C@H](NC(=O)[C@H](Cc1ccc(O)cc1)NC(=O)c1cc(Cl)ccc1Cl)B(O)O,Non-Toxic,< 79.4 nM
50.1 nM,,CC(C)C[C@H](NC(=O)[C@H](Cc1ccccc1)NC(=O)c1cc(Cl)ccc1Cl)C(=O)O,,
4.27 nM,,CC(C)C[C@H](NC(=O)[C@H](Cc1ccccc1)NC(=O)c1nc(Cl)ccc1Cl)B(O)O,Non-Toxic,< 79.4 nM
